Laboratory results published in PMC4368200, “Triclabendazole Sulfoxide Causes Stage-Dependent Embryolethality in Zebrafish and Mouse In Vitro” (PLoS ONE, 2015).
Where “and” joins values, the source holds several entries; their conditions need not be identical. Equal entries are not always repeated. Where two headings read alike, the source gives them in different places. Marks after values point to notes of the source that are not given here.

Tests used:
[1] = test system: rat embryos explanted at GD 9.5; experiment: Postimplantation whole embryo culture (postWEC); set-up: species or system Sprague Dawley rats; key to Yolk sac circulation (median): 1 = few/abnormal vessels, 2 = delayed, 3 = complete vascularization; key to Morphological score: sum of structure scores; higher = more advanced differentiation; settings: for Crown-rump length / Morphological score / Somites number / Yolk sac circulation (median) / Dysmorphogenic embryos: 48 h; for postWEC LOAEC: GD 9.5-11.5, 48 h
Protocol: Nulliparous female rats, which were checked to be in the oestrus phase of the oestrous cycle, were housed with adult males (1:1) for 4 h, considering 2 h of light and 2 h of darkness. Mating was confirmed by the presence of sperm in vaginal smear, and the following 24 h were considered as gestational day 0 (GD 0).
Rat embryos were explanted and evaluated as described before with some variations. Briefly, embryos were explanted at GD 9.5 under sterile conditions. Two embryos were incorporated in flasks filled with 3.5 mL of culture medium which contained 20% of rat serum and 80% of serum mixture (Biochrom AG; Berlin, Germany). TCBZ, TCBZSO, ABZ and ABZSO were dissolved in dimethyl sulfoxide (DMSO; Sigma Aldrich Spain) and added to the culture medium to a final DMSO concentration of 0.1%. Culture flasks were oxygenated at the beginning of the culture with a gas mixture containing 12% O2 and after 38 h with a gas mixture containing 50% O2. Embryos were cultured at a temperature of 38°C, under rotation at a speed of 25 rpm (Noria R, Ovan Spain) for 48 h. After this period, embryos presenting yolk sac circulation and heartbeat were considered alive and were selected for further evaluation. The yolk sac circulation was evaluated according to the level of formation of blood vessels, giving a score of 1 in the cases in which few vessels were observed or the vascularization was abnormal, a score of 2 when a delay in vascularization was observed and 3 for complete vascularization, as previously described in [35]. Growth evaluation was assessed by crown-rump length and differentiation was evaluated by counting the number of somites and the morphological score. This score is the sum of the scores given to several embryonic structures depending on their differentiation stage, corresponding higher values with higher stages of differentiation. Furthermore, the percentage of dysmorphogenesis was calculated according to [36].
For the postWEC experiments, the selected concentrations were 140 μM, 278 μM and 556 μM for TCBZ and 267 μM, 666 μM and 932 μM for TCBZSO. The tested concentrations for ABZ analysis were 0.4 μM, 1.1 μM and 1.9 μM and for ABZSO were 3.4 μM, 9 μM, 12 μM, 14 μM and 16 μM.

rat whole embryo culture = test system: rat whole embryo culture; set-up: method as in PMID 22652462; settings: ref 16; cited from earlier work
zebrafish embryos [2] = settings: cited from earlier work
[3] = cited from earlier work
zebrafish embryos [4] = experiment: Zebrafish embryo test (ZFET); assay type: in vivo, Danio rerio; settings: for Lethality / ZFET LOAEC dysmorphogenesis / ZFET LOAEC lethality: 2-50 hpf; for Dysmorphogenic embryos / Morphological score: 50 hpf
Protocol: The day before the test, adult male and female zebrafish were transferred (1:1) to breeding tanks (Aquaneering, San Diego, California). Artificial plants and marbles were used as spawning substrate. Spawning and fertilization took place within 30 min after the onset of light in the morning. Eggs were collected and extensively cleaned with ISO-standard 7346 water diluted 1:5 using deionized water. Fertilized eggs were selected under a dissection stereomicroscope (Motic SMZ168, Motic China group, LTD., China). The eggs presenting overt anomalies like asymmetries, formation of vesicles or damaged membranes were discarded.
Exposure and evaluation of eggs was performed as described before with slight variations. At 2 hours post-fertilization (hpf) fertilized eggs were selected and transferred to 6-well plates (Greiner Bio-one, Germany). Ten embryos were randomly distributed into wells and filled with 5 mL of freshly prepared test solutions. TCBZ, TCBZSO, ABZ and ABZSO were dissolved in DMSO and subsequently diluted in 0.3x Danieau’s buffer to a final DMSO concentration of 0.05% (v/v). Embryos were incubated at 26 ± 1°C with a dark-light cycle of 10–14 h for 48 h. Embryolethality was determined at 8 hpf on the basis of egg coagulation, at 26 hpf by the absence of tail detachment or somites formation, and at 50 hpf by the absence of heartbeat. Developmental and teratogenic effects were assessed at 50 hpf by the total morphological score described in [32].
The working concentrations for ZFET experiments were 0.1 μM, 0.5 μM, 1 μM, 2.5 μM and 5 μM for TCBZ studies and 0.5 μM, 1 μM, 2.5 μM, 5 μM, 10 μM and 50 μM for TCBZSO. The experiments with ABZ were performed including concentrations of 0.025 μM, 0.05 μM, 0.1 μM, 0.3 μM and 0.5 μM and for ABZSO they included 1 μM, 6 μM, 12 μM, 25 μM and 50 μM.

CCC[S+]([O-])c1ccc2[nH]c(NC(=O)OC)nc2c1 (centres unmarked) [ABZSO, albendazole sulfoxide]
Crown-rump length ([1]; 3.4 μM): 3.6 ± 0.2 mm
Morphological score ([1]; 3.4 μM): 38.5 ± 2.1
Somites number ([1]; 3.4 μM): 26.9 ± 1.6
Yolk sac circulation (median) ([1]; 3.4 μM): 3.0
Frequency of dysmorphogenesis: Branchial bars ([1]; 9 µM): 23.1%
Frequency of dysmorphogenesis: Caudal part ([1]; 9 µM): 7.7%
Frequency of dysmorphogenesis: Flexion ([1]; 9 µM): 7.7%
Frequency of dysmorphogenesis: Heart ([1]; 9 µM): 7.7%
Frequency of dysmorphogenesis: Subcutaneous blisters ([1]; 9 µM): 30.8%
Frequency of dysmorphogenesis: Yolk sac ([1]; 9 µM): 7.7%
Crown-rump length ([1]; 9 μM): 3.4 ± 0.3 mm
Dysmorphogenic embryos ([1]; 9 μM): 30.8 ^* %
Morphological score ([1]; 9 μM): 35.8 ± 5.2
Somites number ([1]; 9 μM): 25.0 ± 2.8
Yolk sac circulation (median) ([1]; 9 μM): 3.0
Frequency of dysmorphogenesis: Branchial bars ([1]; 12 µM): 10%
Frequency of dysmorphogenesis: Head ([1]; 12 µM): 40%
Frequency of dysmorphogenesis: Subcutaneous blisters ([1]; 12 µM): 40%
Crown-rump length ([1]; 12 μM): 3.6 ± 0.2 mm
Dysmorphogenic embryos ([1]; 12 μM): 40 ^* %
Morphological score ([1]; 12 μM): 38.6 ± 1.2
Somites number ([1]; 12 μM): 25.5 ± 2.0
Yolk sac circulation (median) ([1]; 12 μM): 3.0
Frequency of dysmorphogenesis: Branchial bars ([1]; 14 µM): 63.6%
Frequency of dysmorphogenesis: Caudal part ([1]; 14 µM): 36.4%
Frequency of dysmorphogenesis: Flexion ([1]; 14 µM): 9.1%
Frequency of dysmorphogenesis: Head ([1]; 14 µM): 36.4%
Frequency of dysmorphogenesis: Optic vesicles ([1]; 14 µM): 9.1%
Frequency of dysmorphogenesis: Otic vesicles ([1]; 14 µM): 36.4%
Frequency of dysmorphogenesis: Subcutaneous blisters ([1]; 14 µM): 54.5%
Frequency of dysmorphogenesis: Yolk sac ([1]; 14 µM): 18.2%
Crown-rump length ([1]; 14 μM): 3.4 ± 0.2 mm
Dysmorphogenic embryos ([1]; 14 μM): 72.7 ^* %
Morphological score ([1]; 14 μM): 29.7 ± 6.6
Somites number ([1]; 14 μM): 22.9 ± 1.6
Yolk sac circulation (median) ([1]; 14 μM): 2.0 ^*
Frequency of dysmorphogenesis: Branchial bars ([1]; 16 µM): 100%
Frequency of dysmorphogenesis: Caudal part ([1]; 16 µM): 72.7%
Frequency of dysmorphogenesis: Flexion ([1]; 16 µM): 63.6%
Frequency of dysmorphogenesis: Head ([1]; 16 µM): 72.7%
Frequency of dysmorphogenesis: Heart ([1]; 16 µM): 45.5%
Frequency of dysmorphogenesis: Limbs ([1]; 16 µM): 18.2%
Frequency of dysmorphogenesis: Optic vesicles ([1]; 16 µM): 27.3%
Frequency of dysmorphogenesis: Otic vesicles ([1]; 16 µM): 45.5%
Frequency of dysmorphogenesis: Subcutaneous blisters ([1]; 16 µM): 45.5%
Frequency of dysmorphogenesis: Yolk sac ([1]; 16 µM): 63.6%
Crown-rump length ([1]; 16 μM): 3.1 ± 0.6 mm
Dysmorphogenic embryos ([1]; 16 μM): 100 ^* %
Morphological score ([1]; 16 μM): 21.8 ± 6.7
Somites number ([1]; 16 μM): 19.3 ± 2.4
Yolk sac circulation (median) ([1]; 16 μM): 1.0 ^*
postWEC LOAEC [1]: 9 µM
postWEC LOAEC, in vitro literature (rat whole embryo culture): 17.7 [16] μM
ZFET LOAEC, in vitro literature (zebrafish embryos [2]; ref 19): Non observed adverse effects
ZFET LOAEC, in vitro literature (zebrafish embryos [2]; ref 20): 6.8 µM
Plasma concentrations at teratogenic doses ([3]; reviewed and transformed to μM by 16): 12.8 ([47]; reviewed and transformed to μM by [16])
Lethality (zebrafish embryos [4]; 1 μM): 0%
Dysmorphogenic embryos (zebrafish embryos [4]; 1 μM): 0%
Morphological score (zebrafish embryos [4]; 1 μM): 36.0 ± 0.0
Frequency of dysmorphogenesis: Cardiac oedema (zebrafish embryos [4]; 6µM): 3.3%
Lethality (zebrafish embryos [4]; 6 μM): 0%
Dysmorphogenic embryos (zebrafish embryos [4]; 6 μM): 3.3%
Morphological score (zebrafish embryos [4]; 6 μM): 35.7 ± 0.9
Frequency of dysmorphogenesis: Cardiac oedema (zebrafish embryos [4]; 12 µM): 10%
Lethality (zebrafish embryos [4]; 12 μM): 0%
Dysmorphogenic embryos (zebrafish embryos [4]; 12 μM): 10%
Morphological score (zebrafish embryos [4]; 12 μM): 35.5 ± 0.6
Frequency of dysmorphogenesis: Brain necrosis (zebrafish embryos [4]; 25µM): 100%
Frequency of dysmorphogenesis: Cardiac oedema (zebrafish embryos [4]; 25µM): 100%
Frequency of dysmorphogenesis: Developmental delay (zebrafish embryos [4]; 25µM): 100%
Frequency of dysmorphogenesis: Eye pigmentation (zebrafish embryos [4]; 25µM): 100%
Frequency of dysmorphogenesis: Head-body pigmentation (zebrafish embryos [4]; 25µM): 100%
Frequency of dysmorphogenesis: Movement (zebrafish embryos [4]; 25µM): 100%
Lethality (zebrafish embryos [4]; 25 μM): 13%
Dysmorphogenic embryos (zebrafish embryos [4]; 25 μM): 100% and 100 ^* %
Morphological score (zebrafish embryos [4]; 25 μM): 18.0 ± 0.0
Lethality (zebrafish embryos [4]; 50 μM): 100% and 100 ^* %
ZFET LOAEC dysmorphogenesis (zebrafish embryos [4]): 25 µM
ZFET LOAEC lethality (zebrafish embryos [4]): 50 µM

CCCSc1ccc2nc(NC(=O)OC)[nH]c2c1 [ABZ, methyl-5-(propylthio)-2-benzimidazole-carbamate]
Crown-rump length ([1]; 0.4 μM): 3.5 ± 0.1 mm
Dysmorphogenic embryos ([1]; 0.4 μM): 0%
Morphological score ([1]; 0.4 μM): 38.9 ± 0.6
Somites number ([1]; 0.4 μM): 25.8 ± 1.9
Yolk sac circulation (median) ([1]; 0.4 μM): 3.0
Frequency of dysmorphogenesis: Branchial bars ([1]; 1.1 µM): 50%
Frequency of dysmorphogenesis: Heart ([1]; 1.1 µM): 12.5%
Frequency of dysmorphogenesis: Subcutaneous blisters ([1]; 1.1 µM): 50%
Frequency of dysmorphogenesis: Yolk sac ([1]; 1.1 µM): 25%
Crown-rump length ([1]; 1.1 μM): 3.2 ± 0.2 mm
Dysmorphogenic embryos ([1]; 1.1 μM): 50 ^* %
Morphological score ([1]; 1.1 μM): 30.8 ± 2.1
Somites number ([1]; 1.1 μM): 23.9 ± 1.1
Yolk sac circulation (median) ([1]; 1.1 μM): 3.0
Frequency of dysmorphogenesis: Branchial bars ([1]; 1.9 µM): 100%
Frequency of dysmorphogenesis: Caudal part ([1]; 1.9 µM): 37.5%
Frequency of dysmorphogenesis: Flexion ([1]; 1.9 µM): 12.5%
Frequency of dysmorphogenesis: Head ([1]; 1.9 µM): 62.5%
Frequency of dysmorphogenesis: Heart ([1]; 1.9 µM): 37.5%
Frequency of dysmorphogenesis: Subcutaneous blisters ([1]; 1.9 µM): 37.5%
Frequency of dysmorphogenesis: Yolk sac ([1]; 1.9 µM): 75%
Crown-rump length ([1]; 1.9 μM): 2.9 ± 0.4 mm
Dysmorphogenic embryos ([1]; 1.9 μM): 100 ^* %
Morphological score ([1]; 1.9 μM): 26.4 ± 5.2
Somites number ([1]; 1.9 μM): 21.9 ± 4.5
Yolk sac circulation (median) ([1]; 1.9 μM): 1.0 ^*
postWEC LOAEC [1]: 1.1 µM
postWEC LOAEC, in vitro literature (rat whole embryo culture): 3.7 [16] μM
ZFET LOAEC, in vitro literature (zebrafish embryos [2]; ref 19, 20): 0.3 [19, 20] μM
Plasma concentrations at teratogenic doses ([3]; reviewed and transformed to μM by 13): 0.94 ([47]; reviewed and transformed to μM by [13])
Lethality (zebrafish embryos [4]; 0.025 μM): 7%
Dysmorphogenic embryos (zebrafish embryos [4]; 0.025 μM): 0%
Morphological score (zebrafish embryos [4]; 0.025 μM): 36.0 ± 0.0
Frequency of dysmorphogenesis: Cardiac oedema (zebrafish embryos [4]; 0.05 µM): 3.3%
Lethality (zebrafish embryos [4]; 0.05 μM): 0%
Dysmorphogenic embryos (zebrafish embryos [4]; 0.05 μM): 3.3%
Morphological score (zebrafish embryos [4]; 0.05 μM): 35.9 ± 0.2
Frequency of dysmorphogenesis: Cardiac oedema (zebrafish embryos [4]; 0.1 µM): 2.5%
Lethality (zebrafish embryos [4]; 0.1 μM): 0%
Dysmorphogenic embryos (zebrafish embryos [4]; 0.1 μM): 2.5%
Morphological score (zebrafish embryos [4]; 0.1 μM): 35.9 ± 0.2
Frequency of dysmorphogenesis: Cardiac oedema (zebrafish embryos [4]; 0.3 µM): 72%
Frequency of dysmorphogenesis: Developmental delay (zebrafish embryos [4]; 0.3 µM): 72%
Frequency of dysmorphogenesis: Eye pigmentation (zebrafish embryos [4]; 0.3 µM): 16%
Frequency of dysmorphogenesis: Head-body pigmentation (zebrafish embryos [4]; 0.3 µM): 40%
Frequency of dysmorphogenesis: Movement (zebrafish embryos [4]; 0.3 µM): 32%
Lethality (zebrafish embryos [4]; 0.3 μM): 17 ^* %
Dysmorphogenic embryos (zebrafish embryos [4]; 0.3 μM): 72 ^* %
Morphological score (zebrafish embryos [4]; 0.3 μM): 25.5 ± 2.1
Lethality (zebrafish embryos [4]; 0.5 μM): 100% and 100 ^* %
ZFET LOAEC dysmorphogenesis (zebrafish embryos [4]): 0.3 µM
ZFET LOAEC lethality (zebrafish embryos [4]): 0.3 µM
